In ChEMBL document CHEMBL1255485, “In vitro activity of fidaxomicin (OPT-80) tested against contemporary clinical isolates of Staphylococcus spp. and Enterococcus spp” (2010):
≈ marks a conversion by molar mass, not a printed value.

What was measured:
Type in all cases: functional
Staphylococcus aureus [1] = assay: Antibacterial activity against methicillin-susceptible Staphylococcus aureus assessed as percent resistant isolates by broth microdilution method
Staphylococcus aureus [2] = assay: Antibacterial activity against methicillin-resistant Staphylococcus aureus assessed as percent resistant isolates by broth microdilution method
Enterococcus faecalis [3] = assay: Antibacterial activity against vancomycin-susceptible Enterococcus faecalis assessed as percent susceptible isolates by broth microdilution method
Staphylococcus [4] = assay: Antibacterial activity against methicillin-resistant coagulase-negative Staphylococcus by broth microdilution method
Enterococcus faecium [5] = assay: Antibacterial activity against vancomycin-susceptible Enterococcus faecium by broth microdilution method
Staphylococcus [6] = assay: Antibacterial activity against methicillin-susceptible coagulase-negative Staphylococcus by broth microdilution method
Enterococcus faecalis [7] = assay: Antibacterial activity against vancomycin-susceptible Enterococcus faecalis by broth microdilution method
Enterococcus faecalis [8] = assay: Antibacterial activity against vancomycin-resistant Enterococcus faecalis assessed as percent resistant isolates by broth microdilution method
Enterococcus faecalis [9] = assay: Antibacterial activity against vancomycin-resistant Enterococcus faecalis by broth microdilution method
Enterococcus faecalis [10] = assay: Antibacterial activity against vancomycin-resistant Enterococcus faecalis assessed as percent susceptible isolates by broth microdilution method
Enterococcus faecium [11] = assay: Antibacterial activity against vancomycin-susceptible Enterococcus faecium assessed as percent resistant isolates by broth microdilution method
Staphylococcus aureus [12] = assay: Antibacterial activity against methicillin-susceptible Staphylococcus aureus by broth microdilution method
Staphylococcus aureus [13] = assay: Antibacterial activity against methicillin-resistant Staphylococcus aureus by broth microdilution method
Staphylococcus [14] = assay: Antibacterial activity against methicillin-resistant coagulase-negative Staphylococcus assessed as percent resistant isolates by broth microdilution method
Enterococcus faecalis [15] = assay: Antibacterial activity against vancomycin-susceptible Enterococcus faecalis assessed as percent resistant isolates by broth microdilution method
Staphylococcus [16] = assay: Antibacterial activity against methicillin-susceptible coagulase-negative Staphylococcus assessed as percent susceptible isolates by broth microdilution method
Enterococcus faecium [17] = assay: Antibacterial activity against vancomycin-resistant Enterococcus faecium by broth microdilution method
Enterococcus faecium [18] = assay: Antibacterial activity against vancomycin-susceptible Enterococcus faecium assessed as percent susceptible isolates by broth microdilution method
Enterococcus faecium [19] = assay: Antibacterial activity against vancomycin-resistant Enterococcus faecium assessed as percent susceptible isolates by broth microdilution method
Staphylococcus [20] = assay: Antibacterial activity against methicillin-resistant coagulase-negative Staphylococcus assessed as percent susceptible isolates by broth microdilution method
Enterococcus faecium [21] = assay: Antibacterial activity against vancomycin-resistant Enterococcus faecium assessed as percent resistant isolates by broth microdilution method
Enterococcus = assay: Antibacterial activity against Enterococcus by agar dilution technique
Staphylococcus aureus [22] = assay: Selectivity ratio of MIC50 for methicillin-susceptible Staphylococcus aureus to MIC50 for methicillin-resistant Staphylococcus aureus
Enterococcus faecalis [23] = assay: Selectivity ratio of MBC to MIC for Enterococcus faecalis
Enterococcus faecium [24] = assay: Selectivity ratio of MBC to MIC for Enterococcus faecium
[25] = Selectivity ratio of MIC90 for vancomycin-resistant Enterococcus faecium to MIC90 for vancomycin-resistant Enterococcus faecalis
Staphylococcus [26] = assay: Antibacterial activity against Staphylococcus by agar dilution technique
Staphylococcus aureus [27] = assay: Antibacterial activity against linezolid-nonsusceptible Staphylococcus aureus by broth microdilution method
Staphylococcus aureus [28] = assay: Selectivity ratio of MBC to MIC for Staphylococcus aureus
Staphylococcus [29] = assay: Selectivity ratio of MBC to MIC for coagulase-negative Staphylococcus
[30] = Selectivity ratio of MIC50 for vancomycin-resistant Enterococcus faecium to MIC50 for vancomycin-resistant Enterococcus faecalis
[31] = Selectivity ratio of MIC50 for vancomycin-susceptible Enterococcus faecium to MIC50 for vancomycin-susceptible Enterococcus faecalis

Structure (SMILES)	Activity (Staphylococcus aureus [1])	Activity (Staphylococcus aureus [2])	MIC50 (Staphylococcus [4])	MIC90 (Staphylococcus [4])	MIC50 (Enterococcus faecium [5])	MIC90 (Enterococcus faecium [5])	MIC50 (Staphylococcus [6])	MIC90 (Staphylococcus [6])	MIC (Enterococcus faecalis [7])	MIC50 (Enterococcus faecalis [7])	MIC90 (Enterococcus faecalis [7])	MIC (Enterococcus faecalis [9])	MIC50 (Enterococcus faecalis [9])	MIC90 (Enterococcus faecalis [9])	MIC50 (Staphylococcus aureus [12])	MIC90 (Staphylococcus aureus [12])	MIC50 (Staphylococcus aureus [13])	MIC90 (Staphylococcus aureus [13])	MIC50 (Enterococcus faecium [17])	MIC90 (Enterococcus faecium [17])	other results
CCC[C@@H]1C[C@@H](C(=O)N[C@@H]([C@H]2O[C@H](SC)[C@H](O)[C@@H](O)[C@H]2O)[C@H](C)Cl)N(C)C1 [CLINDAMYCIN]	2.3%	43.8%																			
CC[C@H]1OC(=O)[C@H](C)[C@@H](O[C@H]2C[C@@](C)(OC)[C@@H](O)[C@H](C)O2)[C@H](C)[C@@H](O[C@@H]2O[C@H](C)C[C@H](N(C)C)[C@H]2O)[C@](C)(O)C[C@@H](C)C(=O)[C@H](C)[C@@H](O)[C@]1(C)O [ERYTHROMYCIN]	16.3%	87.5%																			
CN[C@H](CC(C)C)C(=O)N[C@H]1C(=O)N[C@@H](CC(N)=O)C(=O)N[C@H]2C(=O)N[C@H]3C(=O)N[C@H](C(=O)N[C@H](C(=O)O)c4cc(O)cc(O)c4-c4cc3ccc4O)[C@H](O)c3ccc(c(Cl)c3)Oc3cc2cc(c3O[C@@H]2O[C@H](CO)[C@@H](O)[C@H](O)[C@H]2O[C@H]2C[C@](C)(N)[C@H](O)[C@H](C)O2)Oc2ccc(cc2Cl)[C@H]1O [VANCOMYCIN]	0%	15.6%	2 µg/mL (≈ 1.38 µM)	2 µg/mL (≈ 1.38 µM)	> 0.5 µg/mL	1 µg/mL (≈ 0.69 µM)	1 µg/mL (≈ 0.69 µM)	2 µg/mL (≈ 1.38 µM)	1 µg/mL (≈ 0.69 µM)	1 µg/mL (≈ 0.69 µM)	1 µg/mL (≈ 0.69 µM)	> 16 µg/mL	> 16 µg/mL	> 16 µg/mL	1 µg/mL (≈ 0.69 µM)	1 µg/mL (≈ 0.69 µM)	1 µg/mL (≈ 0.69 µM)	16 µg/mL (≈ 11 µM)	> 16 µg/mL	> 16 µg/mL	Activity (Enterococcus faecalis [3]): 100%; Activity (Enterococcus faecalis [8]): 100%; Activity (Enterococcus faecalis [10]): 0%; Activity (Enterococcus faecium [11]): 0%; Activity (Staphylococcus [14]): 0%; Activity (Enterococcus faecalis [15]): 0%; Activity (Staphylococcus [16]): 100%; MIC (Enterococcus faecium [17]): > 16 µg/mL; Activity (Enterococcus faecium [18]): 100%; Activity (Enterococcus faecium [19]): 0%; Activity (Staphylococcus [20]): 100%; Activity (Enterococcus faecium [21]): 100%
C[C@H]1COc2c(N3CCN(C)CC3)c(F)cc3c(=O)c(C(=O)O)cn1c23.C[C@H]1COc2c(N3CCN(C)CC3)c(F)cc3c(=O)c(C(=O)O)cn1c23.O [LEVOFLOXACIN]	9.3%	56.3%																			
CCc1c(Cl)c(O)c(Cl)c(O)c1C(=O)O[C@H]1[C@H](O)[C@H](OC)[C@H](OC/C2=C\C=C\C[C@H](O)/C(C)=C/[C@H](CC)[C@@H](O[C@@H]3OC(C)(C)[C@@H](OC(=O)C(C)C)[C@H](O)[C@@H]3O)/C(C)=C/C(C)=C/C[C@@H]([C@@H](C)O)OC2=O)O[C@@H]1C [FIDAXOMICIN]			1 µg/mL (≈ 0.945 µM)	4 µg/mL (≈ 3.78 µM)	4 µg/mL (≈ 3.78 µM)	4 µg/mL (≈ 3.78 µM)	2 µg/mL (≈ 1.89 µM)	4 µg/mL (≈ 3.78 µM)	2 µg/mL (≈ 1.89 µM)	2 µg/mL (≈ 1.89 µM)	4 µg/mL (≈ 3.78 µM)	2 µg/mL (≈ 1.89 µM)	2 µg/mL (≈ 1.89 µM)	2 µg/mL (≈ 1.89 µM)	8 µg/mL (≈ 7.56 µM)	8 µg/mL (≈ 7.56 µM)	4 µg/mL (≈ 3.78 µM)	8 µg/mL (≈ 7.56 µM)	4 µg/mL (≈ 3.78 µM)	4 µg/mL (≈ 3.78 µM)	MIC90 (Enterococcus): 8 µg/mL (≈ 7.56 µM); Ratio (Staphylococcus aureus [22]): 2; Selectivity ratio (Enterococcus faecalis [23]): >=16; Selectivity ratio (Enterococcus faecium [24]): >=16; Ratio [25]: 2; MIC90 (Staphylococcus [26]): 2 µg/mL (≈ 1.89 µM); MIC (Staphylococcus aureus [27]): > 4 µg/mL; Selectivity ratio (Staphylococcus aureus [28]): >=16; Selectivity ratio (Staphylococcus [29]): >=16; Ratio [30]: 2; Ratio [31]: 2
CO[C@H]1/C=C/O[C@@]2(C)Oc3c(C)c(O)c4c(O)c(c(/C=N/N5CCN(C)CC5)c(O)c4c3C2=O)NC(=O)/C(C)=C\C=C\[C@H](C)[C@H](O)[C@@H](C)[C@@H](O)[C@@H](C)[C@H](OC(C)=O)[C@@H]1C [RIFAMPIN]	2.3%	18.8%																			
